The text below walks through data of ChEMBL document CHEMBL5316268 (J Med Chem, 2023).

Data set [1] is described as follows: AUC (0 to 24 hrs) in CD rat at 200 mg/kg, po measured for 24 hrs by LC-MS/MS analysis. As to conditions: in vivo. It is filed as ADME, organism-based. Details: dose 200 mg/kg, time 24 hrs, route po.
In data set [2] the test system is EG7. Nature of the data set: Antitumor activity against mouse EG7 cells implanted in C57BL/6 mouse assessed as reduction in tumor volume at 50 mg/kg, po bid administered for 19 days in presence of doxorubicin. Format: functional, organism-based. The note with it: time 19.0 day.
Data set [3] relates to CD8-positive T cell. Nature of the data set: Reversal of AMP-mediated suppression of human CD8-positive T cells function assessed as increase in IFN-gamma level at 0.01 to 1000 nM measured after 4 days by ELISA. Format: functional, cell-based. The note with it: dose 0.01-1000 nM, time 4.0 day.
Data set [4] concerns the target Cytochrome P450 2C9 (Homo sapiens, UniProt P11712). Nature of the data set: Inhibition of human CYP2C9 at 10 uM. It is filed as ADME.
Data set [5] in a line: Tmax in CD rat at 50 mg/kg, po measured for 24 hrs by LC-MS/MS analysis. It is filed as ADME, organism-based. The note with it: in vivo.
Data set [6] addresses T1, 5'-nucleotidase (Mus musculus, UniProt Q61503).
T1 sequence (Q61503 whole entry): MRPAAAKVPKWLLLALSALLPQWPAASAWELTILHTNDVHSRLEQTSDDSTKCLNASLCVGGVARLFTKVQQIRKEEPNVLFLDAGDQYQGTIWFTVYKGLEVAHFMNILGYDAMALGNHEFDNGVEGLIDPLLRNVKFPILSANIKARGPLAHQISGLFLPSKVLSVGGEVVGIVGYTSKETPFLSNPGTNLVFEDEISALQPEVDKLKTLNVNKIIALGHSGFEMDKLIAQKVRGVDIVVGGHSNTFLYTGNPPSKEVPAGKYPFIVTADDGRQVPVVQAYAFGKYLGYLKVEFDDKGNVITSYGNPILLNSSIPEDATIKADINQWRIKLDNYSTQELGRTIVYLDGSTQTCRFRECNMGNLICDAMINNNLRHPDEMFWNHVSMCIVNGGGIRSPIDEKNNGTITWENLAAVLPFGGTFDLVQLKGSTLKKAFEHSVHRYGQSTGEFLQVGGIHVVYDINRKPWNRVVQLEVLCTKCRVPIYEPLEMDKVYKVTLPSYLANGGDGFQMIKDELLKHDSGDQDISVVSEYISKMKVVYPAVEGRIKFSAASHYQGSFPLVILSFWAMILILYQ
Nature of the data set: Inhibition of CD73 in mouse plasma incubated for 5 mins in presence of 15N5-AMP by LC/MS analysis. Format: cell-free.

Data set [7] can be described thus: Plasma protein binding in human at 10 uM assessed as bound fraction. It is filed as ADME, cell-free. As to conditions: read-out: PPB (converted).
Data set [8] is described as follows: Plasma protein binding in dog at 10 uM assessed as bound fraction. Format: ADME, cell-free, Canis lupus familiaris. As to conditions: read-out: PPB (converted).
Data set [9] addresses T2, Cytochrome P450 2C8 (Homo sapiens, UniProt P10632).
T2 sequence (P10632 whole entry): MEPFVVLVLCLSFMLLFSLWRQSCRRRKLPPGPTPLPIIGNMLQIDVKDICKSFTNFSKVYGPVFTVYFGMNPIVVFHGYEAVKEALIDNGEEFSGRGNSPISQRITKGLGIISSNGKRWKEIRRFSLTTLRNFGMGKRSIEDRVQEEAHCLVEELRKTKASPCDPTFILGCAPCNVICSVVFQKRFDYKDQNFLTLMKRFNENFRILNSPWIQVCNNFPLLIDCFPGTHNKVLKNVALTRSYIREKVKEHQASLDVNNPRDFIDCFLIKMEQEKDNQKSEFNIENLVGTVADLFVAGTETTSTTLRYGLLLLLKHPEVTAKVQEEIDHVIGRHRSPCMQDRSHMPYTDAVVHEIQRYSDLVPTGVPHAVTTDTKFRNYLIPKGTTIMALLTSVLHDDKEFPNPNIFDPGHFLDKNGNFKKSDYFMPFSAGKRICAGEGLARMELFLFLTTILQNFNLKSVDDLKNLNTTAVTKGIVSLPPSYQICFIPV
Nature of the data set: Inhibition of human CYP2C8 at 10 uM. Format: ADME.

Data set [10] in a line: Tmax in CD rat at 200 mg/kg, po measured for 24 hrs by LC-MS/MS analysis. It is filed as ADME, organism-based. As to conditions: in vivo.
Data set [11] relates to A-375. As to the kind of experiment: Antiproliferative activity against human A-375 cells at 100 uM incubated for 3 days by Cell Titer-Glo assay. It is filed as functional, cell-based. As to conditions: time 3.0 day. On the technique in general: ATP-based viability assays read luminescence as a measure of living cells.
Data set [12] relates to EG7. As to the kind of experiment: Antitumor activity against mouse EG7 cells implanted in C57BL/6 mouse assessed as reduction in tumor volume at 100 mg/kg, po bid administered for 21 days in presence of anti-PD-L1 antibody. It is filed as functional, organism-based. The note with it: time 21.0 day.
In data set [13] the target is T3, Cytochrome P450 2B6 (Homo sapiens, UniProt P20813).
T3 sequence (P20813 whole entry): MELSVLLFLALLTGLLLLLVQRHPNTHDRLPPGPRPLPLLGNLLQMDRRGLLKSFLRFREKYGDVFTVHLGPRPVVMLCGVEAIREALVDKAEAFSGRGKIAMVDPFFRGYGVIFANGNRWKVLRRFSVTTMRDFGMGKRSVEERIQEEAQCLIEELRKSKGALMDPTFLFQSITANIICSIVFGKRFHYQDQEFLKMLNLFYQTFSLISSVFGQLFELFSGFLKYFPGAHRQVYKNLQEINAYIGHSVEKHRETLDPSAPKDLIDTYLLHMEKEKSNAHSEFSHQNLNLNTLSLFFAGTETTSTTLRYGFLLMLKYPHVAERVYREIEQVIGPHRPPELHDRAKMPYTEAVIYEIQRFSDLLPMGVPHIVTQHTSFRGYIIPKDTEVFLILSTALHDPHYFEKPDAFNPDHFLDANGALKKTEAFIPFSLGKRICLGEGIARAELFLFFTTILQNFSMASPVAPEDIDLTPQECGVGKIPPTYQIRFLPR
As to the kind of experiment: Inhibition of human CYP2B6 at 10 uM. It is filed as ADME.

Data set [14] is described as follows: AUC (0 to 24 hrs) in CD rat at 500 mg/kg, po measured for 24 hrs by LC-MS/MS analysis. Format: ADME, organism-based. As to conditions: in vivo. Details: time 24 hrs, dose 500 mg/kg, route po.
Data set [15] deals with CD8-positive T cell. As to the kind of experiment: Reversal of AMP-mediated suppression of human CD8-positive T cells function assessed as increase in CD25 expression at 0.01 to 1000 nM measured after 4 days by flow cytometry. It is filed as functional, cell-based. As to conditions: dose 0.01-1000 nM, time 4.0 day. Background: In flow cytometry, cells or beads pass a laser one at a time.

In data set [16] the test system is CD8-positive T cell. As to the kind of experiment: Reversal of AMP-mediated suppression of human CD8-positive T cells function assessed as increase in granzyme B level at 0.01 to 1000 nM measured after 4 days by ELISA. It is filed as functional, cell-based. The note with it: dose 0.01-1000 nM, time 4.0 day. A general note: ELISA stands for enzyme-linked immunosorbent assay.

Data set [17] has as its target T4, 5'-nucleotidase (Homo sapiens, UniProt P21589). As to the kind of experiment: Inhibition of CD73 in human plasma derived from esophageal cancer patient incubated for 15 mins in presence of 15N5-AMP by LC/MS analysis. Format: cell-free.
For data set [18], the target named is T4, 5'-nucleotidase. Nature of the data set: Inhibition of CD73 in human plasma derived from ovarian cancer patient incubated for 15 mins in presence of 15N5-AMP by LC/MS analysis. Format: cell-free.
Data set [19] can be described thus: Tmax in CD rat at 500 mg/kg, po measured for 24 hrs by LC-MS/MS analysis. It is filed as ADME, organism-based. The note with it: in vivo.
The test system of data set [20] is EG7. Nature of the data set: Antitumor activity against mouse EG7 cells implanted in C57BL/6 mouse assessed as reduction in tumor volume at 10 to 50 mg/kg, po bid administered for 20 days. It is filed as functional, organism-based. The note with it: dose 10-50 mg/kg, time 20.0 day.
Data set [21] in a line: Plasma protein binding in human assessed as unbound fraction. Format: ADME, cell-free.
The target of data set [22] is T4, 5'-nucleotidase. As to the kind of experiment: Inhibition of CD73 in human plasma derived from TNBC cancer patient incubated for 15 mins in presence of 15N5-AMP by LC/MS analysis. It is filed as cell-free.

Activity calls are given as the source filed them. No cut-off for these calls is given here.

T4 sequence (P21589 whole entry): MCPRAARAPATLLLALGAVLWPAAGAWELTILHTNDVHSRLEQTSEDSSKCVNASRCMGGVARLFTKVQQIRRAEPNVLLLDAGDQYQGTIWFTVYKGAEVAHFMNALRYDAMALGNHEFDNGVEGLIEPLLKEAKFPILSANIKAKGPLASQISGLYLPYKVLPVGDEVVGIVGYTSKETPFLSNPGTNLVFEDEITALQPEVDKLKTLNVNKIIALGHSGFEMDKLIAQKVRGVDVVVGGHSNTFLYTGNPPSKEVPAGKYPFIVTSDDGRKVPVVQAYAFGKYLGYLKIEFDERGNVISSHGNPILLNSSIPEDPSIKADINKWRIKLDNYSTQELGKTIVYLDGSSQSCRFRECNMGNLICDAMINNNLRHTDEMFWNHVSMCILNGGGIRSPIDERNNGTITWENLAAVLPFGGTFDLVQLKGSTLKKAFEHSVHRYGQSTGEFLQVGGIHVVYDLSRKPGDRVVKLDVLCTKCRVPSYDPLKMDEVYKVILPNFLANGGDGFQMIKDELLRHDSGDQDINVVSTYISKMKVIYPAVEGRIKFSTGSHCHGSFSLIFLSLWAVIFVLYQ
Sequence of Cytochrome P450 2C9 (P11712 whole entry): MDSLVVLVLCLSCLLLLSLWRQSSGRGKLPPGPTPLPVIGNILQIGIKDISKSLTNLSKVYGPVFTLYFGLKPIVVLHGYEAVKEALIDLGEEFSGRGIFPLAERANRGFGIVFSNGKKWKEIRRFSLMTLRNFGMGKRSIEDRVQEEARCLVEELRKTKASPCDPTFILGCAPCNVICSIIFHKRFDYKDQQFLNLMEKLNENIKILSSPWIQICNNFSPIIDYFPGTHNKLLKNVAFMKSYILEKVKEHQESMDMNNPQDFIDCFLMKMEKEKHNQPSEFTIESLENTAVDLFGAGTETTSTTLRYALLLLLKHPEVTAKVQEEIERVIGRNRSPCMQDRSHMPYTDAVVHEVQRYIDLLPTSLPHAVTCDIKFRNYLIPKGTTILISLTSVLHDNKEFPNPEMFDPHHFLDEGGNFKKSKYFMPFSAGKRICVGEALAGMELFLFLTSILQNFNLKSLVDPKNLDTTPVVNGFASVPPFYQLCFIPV

One may read the AUC(0-t) as the area under the concentration-time curve up to a stated or last time point. A low value points to less exposure. As usually defined, the Tmax is the time from dosing to the highest level. As a reminder, the IC50 is the midpoint of a concentration-inhibition curve. Consider `C#C[C@@]1(O)[C@@H](COC(Cc2ccc(N3CCCNC3=O)cc2)(C(=O)O)C(=O)O)O[C@@H](n2cnc3c(N)nc(Cl)nc32)[C@@H]1O`, for which the values for the AUC(0-t) at 24 h in data set [1] and in data set [14] were 6090 ng·h/mL and 18500 ng·h/mL, respectively. Also, the result in [2], in [3], in data set [12], in [15], in data set [16] and in [20] was Active. Besides, the “inhibition (INH)” value in data set [4], in data set [9] and in data set [13] was “Not Active” each time. In addition, the Tmax in data set [5] worked out at 48 min; in data set [10] it was 48 min; in data set [19], 18 min. In addition, the IC50 in data set [6] worked out at 1.2 nM; in data set [17], 0.1 nM; in data set [18], 0.15 nM; in data set [22] it was 0.18 nM. Also, the fraction unbound at 10 µM in data set [7] is 0.42; in data set [8], 0.58. Further, the outcome in [11] was inactive. Moreover, the fraction unbound in [21] stood at 0.42.
